The results in this text go back to patent US20140005163A1 (NOVARTIS AG, priority 2010, published 2014).

The structures appear in SMILES notation. A value given as a limit tells only on which side of the number the result lay.

The subject of test [1] is PKB Ser473 phosphorylation in Rat1-myr-HA-p110 alpha cells. Description: Reverse protein array assay, PKB Ser473 phosphorylation in Rat1-myr-p110 alpha cells. It is filed as cell-based. Particulars: 0.5 h, pAkt Ser473, 30 minutes compound incubation, read-out: p-PKB IC50. An outline of the steps: (§1)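 Rat1 cells expressing myristoylated HA-tagged p110 alpha, beta or delta were plated for at least 20 h, then exposed to 8-step serial compound dilutions (0.2% DMSO final) for 30 min at 37 °C. Lysates were spotted at four dilutions on protein microarrays, and relative fluorescence intensity of phospho-Ser473 PKB was calculated.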

Test [2] relates to S6 Ribosomal Protein phosphorylation Ser235/236 in TSC1 null mouse embryo fibroblast (MEF) cells. The test is described as follows: Reverse protein array assay, S6 Ribosomal Protein phosphorylation Ser235/236 in TSC1 null MEF cells. The format is cell-based. The conditions noted are these: 1 h, pS6 ribosomal protein Ser235/236, 60 minutes incubation, read-out: p-S6 IC50. An outline of the steps:
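TSC1−/− MEFs, seeded and held ≥20 h at 37 °C/5% CO2, were exposed to 8-step serial compound dilutions (0.02% DMSO final; DMSO vehicle control) for 60 min at 37 °C. Cells were then lysed on ice for 10 min and lysates spotted onto reverse protein array chips.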

For test [3], the system named is PKB Ser473 phosphorylation in Rat1-myr-HA-p110 beta cells. Description: Reverse protein array assay, PKB Ser473 phosphorylation in Rat1-myr-p110 beta cells. Particulars: 0.5 h, pAkt Ser473, 30 minutes incubation, read-out: p-PKB IC50. The format is cell-based. An outline of the steps:
as §1

In a further test the target is T1, PI3K delta (Homo sapiens, UniProt O00329).
T1 construct: for the full-length p110-d subunit are generated and fused by overlapping PCR; p85(iSH2) fusion partner (see partner chain) (N); His tag (C); made in house; host or cells: baculovirus; Tn5 (Trichoplusia ni) or TiniPro insect cells
T1 sequence (O00329 with tags, fused parts or gaps limits assumed): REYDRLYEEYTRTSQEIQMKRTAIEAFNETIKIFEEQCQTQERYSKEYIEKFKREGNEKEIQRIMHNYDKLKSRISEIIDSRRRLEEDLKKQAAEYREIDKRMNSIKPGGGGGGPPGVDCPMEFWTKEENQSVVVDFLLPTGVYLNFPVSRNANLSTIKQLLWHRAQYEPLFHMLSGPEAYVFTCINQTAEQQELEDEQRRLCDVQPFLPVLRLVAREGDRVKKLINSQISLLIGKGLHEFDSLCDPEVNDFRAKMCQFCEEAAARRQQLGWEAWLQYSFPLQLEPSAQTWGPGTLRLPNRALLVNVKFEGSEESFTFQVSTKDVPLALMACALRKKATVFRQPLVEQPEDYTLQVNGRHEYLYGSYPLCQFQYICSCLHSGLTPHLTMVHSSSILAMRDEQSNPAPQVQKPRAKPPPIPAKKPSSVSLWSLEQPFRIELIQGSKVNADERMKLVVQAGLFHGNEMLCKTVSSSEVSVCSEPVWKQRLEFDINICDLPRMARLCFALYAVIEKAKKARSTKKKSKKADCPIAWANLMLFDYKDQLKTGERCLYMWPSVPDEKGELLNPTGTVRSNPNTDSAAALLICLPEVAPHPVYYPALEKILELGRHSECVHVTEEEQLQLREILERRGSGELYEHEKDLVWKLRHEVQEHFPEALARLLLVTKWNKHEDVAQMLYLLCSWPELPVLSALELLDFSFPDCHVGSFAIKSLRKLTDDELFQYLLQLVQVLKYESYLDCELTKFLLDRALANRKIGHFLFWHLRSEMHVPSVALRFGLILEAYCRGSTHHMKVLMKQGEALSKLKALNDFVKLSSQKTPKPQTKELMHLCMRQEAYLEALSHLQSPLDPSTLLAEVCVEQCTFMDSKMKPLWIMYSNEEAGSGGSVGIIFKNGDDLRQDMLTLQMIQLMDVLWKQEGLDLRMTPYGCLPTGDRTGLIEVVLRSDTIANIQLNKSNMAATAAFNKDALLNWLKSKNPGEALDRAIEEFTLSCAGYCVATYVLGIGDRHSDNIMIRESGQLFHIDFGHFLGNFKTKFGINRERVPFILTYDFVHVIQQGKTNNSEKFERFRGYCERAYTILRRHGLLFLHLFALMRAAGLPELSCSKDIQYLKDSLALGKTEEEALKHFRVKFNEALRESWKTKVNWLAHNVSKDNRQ
The test is described as follows: PI3K delta kinase assay (Kinase-Glo luminescence). The format is biochemical. The method in brief: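 Kinase-Glo luminescence read-out of ATP remaining after 60 min at RT. Enzyme: 10 nM BV1060 (p85 iSH2–p110δ fusion, His-tagged); substrate 10 μg/mL PI, ATP 1 μM final; Tris pH 7.5 buffer with MgCl2, NaCl, CHAPS, DTT. IC50 from 4-parameter logistic fit over 8 concentrations.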
(In general: Kinase-Glo measures the ATP left after a reaction by luminescence.)

Broadly, the IC50 is the midpoint of a concentration-inhibition curve. Consider `Cc1nn(C)cc1-n1c(=O)n(C)c2cnc3ccc(-c4cncc(C(C)O)c4)cc3c21` (racemic) [Example 217, (rac)-1-(1,3-Dimethyl-1H-pyrazol-4-yl)-8-[5-(1-hydroxy-ethyl)-pyridin-3-yl]-3-methyl-1,3-dihydro-imidazo[4,5-c]quinolin-2-one], for which the 50% inhibitory concentration (IC50) was 108 nM in test [1], 10 nM in test [2], 161 nM in test [3] and 19 nM at PI3K delta.
Regarding `COc1ccc(-c2ccc3ncc4c(c3c2)n(-c2c(C)nn(C)c2C)c(=O)n4C)cc1OC` [Example 1.9, 8-(3,4-Dimethoxy-phenyl)-3-methyl-1-(1,3,5-trimethyl-1H-pyrazol-4-yl)-1,3-dihydro-imidazo[4,5-c]quinolin-2-one], the IC50 is 26 nM in test [1], 44 nM in test [2], 113 nM in test [3] and 18 nM at PI3K delta.
`COc1ccc(-c2ccc3ncc4c(c3c2)n(-c2ccnn2C)c(=O)n4C)cn1` [Example 2.2, 8-(6-Methoxy-pyridin-3-yl)-3-methyl-1-(2-methyl-2H-pyrazol-3-yl)-1,3-dihydro-imidazo[4,5-c]quinolin-2-one]: the IC50 is 159 nM in test [1], 553 nM in test [3] and 56 nM on PI3K delta.
With `COc1ccc(-c2ccc3ncc4c(c3c2)n(-c2cnn(C)c2C)c(=O)n4C)cn1` [Example 2.9, 1-(1,5-Dimethyl-1H-pyrazol-4-yl)-8-(6-methoxy-pyridin-3-yl)-3-methyl-1,3-dihydro-imidazo[4,5-c]quinolin-2-one], the 50% inhibitory concentration (IC50) in test [1] was 44 nM; in test [2], 27 nM; in test [3] it was 141 nM; at PI3K delta, 54 nM.
As to `CCOc1ccc(-c2ccc3ncc4c(c3c2)n(-c2cn(C)nc2Cl)c(=O)n4C)cn1` [Example 3.8, 1-(3-Chloro-1-methyl-1H-pyrazol-4-yl)-8-(6-ethoxy-pyridin-3-yl)-3-methyl-1,3-dihydro-imidazo[4,5-c]quinolin-2-one], the IC50 in test [1] was found to be 15 nM; in test [2], 11 nM; in test [3], 23 nM; on PI3K delta, 34 nM.
On to `Cc1c(-n2c(=O)n(C)c3cnc4ccc(-c5ccc(N(C)C)nc5)cc4c32)cnn1C` [Example 4.4, 8-(6-Dimethylamino-pyridin-3-yl)-1-(1,5-dimethyl-1H-pyrazol-4-yl)-3-methyl-1,3-dihydro-imidazo[4,5-c]quinolin-2-one], for which the concentration for half-maximal inhibition (IC50) in test [1] is 53 nM; in test [2], 10 nM; in test [3] it was 110 nM; on PI3K delta, 89 nM.
The corresponding values for `Cc1nn(C(C)C)cc1-n1c(=O)n(C)c2cnc3ccc(-c4cnc(N(C)C)nc4)cc3c21` [Example 6.1, 8-(2-Dimethylamino-pyrimidin-5-yl)-1-(1-isopropyl-3-methyl-1H-pyrazol-4-yl)-3-methyl-1,3-dihydro-imidazo[4,5-c]quinolin-2-one] are 61 nM, 33 nM, 43 nM and 28 nM.
The corresponding values for `Cc1nn(C)cc1-n1c(=O)n(C)c2cnc3ccc(-c4cccnc4)cc3c21` [Example 10.2, 1-(1,3-Dimethyl-1H-pyrazol-4-yl)-3-methyl-8-pyridin-3-yl-1,3-dihydro-imidazo[4,5-c]quinolin-2-one] are 50 nM, 24 nM, 58 nM and 112 nM.
The corresponding values for `CCn1cc(-n2c(=O)n(C)c3cnc4ccc(-c5ccc(CO)nc5)cc4c32)c(C)n1` [Example 16.1, 1-(1-ethyl-3-methyl-1H-pyrazol-4-yl)-8-(6-hydroxymethyl-pyridin-3-yl)-3-methyl-1,3-dihydro-imidazo[4,5-c]quinolin-2-one] are 74 nM, 33 nM, 34 nM and 25 nM.
For the compound `Cc1nn(C)cc1-n1c(=O)n(C)c2cnc3ccc(-c4cncc(S(C)(=O)=O)c4)cc3c21` [Example 22, 1-(1,3-Dimethyl-1H-pyrazol-4-yl)-8-(5-methanesulfonyl-pyridin-3-yl)-3-methyl-1,3-dihydro-imidazo[4,5-c]quinolin-2-one], the concentration for half-maximal inhibition (IC50) was 168 nM in test [1], 27 nM in test [2], 148 nM in test [3] and 9 nM at PI3K delta.
In the case of `Cc1nn(CC(=O)N(C)C)c(C)c1-n1c(=O)n(C)c2cnc3ccc(-c4cnc(N)c(C(F)(F)F)c4)cc3c21` [Example 25.2, 2-{4-[8-(6-Amino-5-trifluoromethyl-pyridin-3-yl)-3-methyl-2-oxo-2,3-dihydro-imidazo[4,5-c]quinolin-1-yl]-3,5-dimethyl-pyrazol-1-yl}-N,N-dimethyl-acetamide], the half-inhibitory concentration (IC50) in test [1] was 90 nM; in test [2] it was 6 nM; on PI3K delta, 32 nM.
As for `Cc1nn(C)c(C)c1-n1c(=O)n(C)c2cnc3ccc(-c4cnc(N)c(C(F)(F)F)c4)cc3c21` [Example 25.3, 8-(6-Amino-5-trifluoromethyl-pyridin-3-yl)-3-methyl-1-(1,3,5-trimethyl-1H-pyrazol-4-yl)-1,3-dihydro-imidazo[4,5-c]quinolin-2-one], the IC50 in test [1] amounted to 25 nM; in test [2] it was 2 nM; in test [3] it was 73 nM; on PI3K delta it was 46 nM.
Take `Cc1nn(C(C)C)cc1-n1c(=O)n(C)c2cnc3ccc(-c4cnc(N)c(C(F)(F)F)c4)cc3c21` [Example 25.4, 8-(6-Amino-5-trifluoromethyl-pyridin-3-yl)-1-(1-isopropyl-3-methyl-1H-pyrazol-4-yl)-3-methyl-1,3-dihydro-imidazo[4,5-c]quinolin-2-one]: the 50% inhibitory concentration (IC50) is below 5 nM in test [1], below 0.5 nM in test [2], 7 nM in test [3] and 4 nM at PI3K delta.
The corresponding values for `Cc1noc(C)c1-n1c(=O)n(C)c2cnc3ccc(-c4cnc(N)c(C(F)(F)F)c4)cc3c21` [Example 25.5, 8-(6-Amino-5-trifluoromethyl-pyridin-3-yl)-1-(3,5-dimethyl-isoxazol-4-yl)-3-methyl-1,3-dihydro-imidazo[4,5-c]quinolin-2-one] are 97 nM, 8 nM, 115 nM and 10 nM.
Turning to `Cc1nn(C)cc1-n1c(=O)n(C)c2cnc3ccc(-c4cncnc4)cc3c21` [Example 26, 1-(1,3-Dimethyl-1H-pyrazol-4-yl)-3-methyl-8-pyrimidin-5-yl-1,3-dihydro-imidazo[4,5-c]quinolin-2-one], the half-maximal inhibitory concentration (IC50) was 159 nM in test [1], 5 nM in test [2], 226 nM in test [3] and 336 nM on PI3K delta.
For the compound `Cc1nn(CC(=O)N(C)C)c(C)c1-n1c(=O)n(C)c2cnc3ccc(-c4ccc(-n5cccn5)cc4)cc3c21` [Example 51.4, 2-{3,5-Dimethyl-4-[3-methyl-2-oxo-8-(4-pyrazol-1-yl-phenyl)-2,3-dihydro-imidazo[4,5-c]quinolin-1-yl]pyrazol-1-yl}-N,N-dimethyl-acetamide], the results for the half-maximal inhibitory concentration (IC50) (in test [1]; in test [2]; at PI3K delta) were 14 nM, 11 nM and 598 nM, respectively.
Regarding `Cc1ncc(-c2ccc3ncc4c(c3c2)n(-c2cn(C)nc2C)c(=O)n4C)cc1N(C)S(C)(=O)=O` [Example 75, N-{5-[1-(1,3-Dimethyl-1H-pyrazol-4-yl)-3-methyl-2-oxo-2,3-dihydro-1H-imidazo[4,5-c]quinolin-8-yl]-2-methyl-pyridin-3-yl}-N-methyl-methanesulfonamide], the IC50 in test [1] turned out to be 206 nM; in test [3], 383 nM; at PI3K delta, 7 nM.
The corresponding values for `CCNc1cc(-c2ccc3ncc4c(c3c2)n(-c2cn(C)nc2C)c(=O)n4C)cnc1C` [Example 87.1, 1-(1,3-Dimethyl-1H-pyrazol-4-yl)-8-(5-ethylamino-6-methyl-pyridin-3-yl)-3-methyl-1,3-dihydro-imidazo[4,5-c]quinolin-2-one] are below 5 nM, below 5 nM and 10 nM.
In the same order, the values of `CCn1cc(-n2c(=O)n(C)c3cnc4ccc(-c5cncc(NC)c5)cc4c32)c(C)n1` [Example 180.1, 1-(1-Ethyl-3-methyl-1H-pyrazol-4-yl)-3-methyl-8-(5-methylamino-pyridin-3-yl)-1,3-dihydro-imidazo[4,5-c]quinolin-2-one] are below 5 nM, below 5 nM and 20 nM.
As for `COCCNC(=O)c1cc(-c2ccc3ncc4c(c3c2)n(-c2cn(C)nc2C)c(=O)n4C)cnc1N` [Example 226, 2-Amino-5-[1-(1,3-dimethyl-1H-pyrazol-4-yl)-3-methyl-2-oxo-2,3-dihydro-1H-imidazo[4,5-c]quinolin-8-yl]-N-(2-methoxy-ethyl)-nicotinamide], the 50% inhibitory concentration (IC50) in test [2] was determined as 7 nM; in test [3], 457 nM; at PI3K delta it was 21 nM.
